One assay addresses human 5HT6 receptor (Homo sapiens, UniProt P50406). The experiment in a line: Binding affinity for the 5-HT6 receptor (3H-LSD displacement). Set-up: expressed in transfected cells. The conditions noted are these: 100 nM test compound; 3H-LSD (2 nM); 60 minute incubation at 37° C; read-out: percent inhibition of radioligand binding for the 5-HT6 receptor. The protocol: Binding Affinity for the 5-HT6 Receptor
The assay protocol generally entailed the incubation of membranes prepared from cells expressing the 5-HT6 receptor with ^3 H-LSD (2 nM). Increasing levels of the test compound were incubated with the radioligand and the membrane homogenates prepared from the recombinant cells. After a 60 minute incubation at 37° C., the incubation was terminated by vacuum filtration. The filters were washed with buffer and the filters were counted for radioactivity using liquid scintillation spectrometry. […] Concentrations ranging from 10^-11 M to 10^-5 M of the test compound were evaluated. […] Affinity for the 5-HT6 receptor is expressed as the amount (in percent) of binding of the radioligand that is inhibited in the presence of 100 nM of test compound. A greater percent inhibition indicates greater affinity for the 5-HT6 receptor.

Another assay has as its target 5-HT7 receptor (Homo sapiens, UniProt P34969). The experiment in a line: Binding to 5-HT7 receptor (selectivity). Further details: dose or concentration left out as unconfirmed. The conditions noted are these: selectivity versus 5-HT6; read-out: percent inhibition for the 5-HT7 receptor.
Another assay deals with T1, 5HT2C receptor (Homo sapiens, UniProt P28335).
T1 sequence (P28335 33-458): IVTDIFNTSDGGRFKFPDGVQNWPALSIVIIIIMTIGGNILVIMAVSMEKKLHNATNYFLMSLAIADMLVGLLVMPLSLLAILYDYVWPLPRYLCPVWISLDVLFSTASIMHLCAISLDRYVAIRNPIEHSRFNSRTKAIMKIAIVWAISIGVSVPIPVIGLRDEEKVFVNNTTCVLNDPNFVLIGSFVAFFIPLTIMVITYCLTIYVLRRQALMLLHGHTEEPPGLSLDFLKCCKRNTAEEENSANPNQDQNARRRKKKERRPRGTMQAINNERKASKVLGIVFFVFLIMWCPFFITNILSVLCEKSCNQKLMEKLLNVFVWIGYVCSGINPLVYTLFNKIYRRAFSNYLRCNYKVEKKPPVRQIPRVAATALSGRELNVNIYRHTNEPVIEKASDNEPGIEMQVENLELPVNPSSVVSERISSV
As to the kind of experiment: Binding to 5HT2C receptor (selectivity). Conditions: selectivity versus 5-HT6; read-out: percent inhibition for the 5HT2C receptor.

The next assay has as its target 5-HT2A receptor (Homo sapiens, UniProt P28223). The experiment in a line: Binding to 5-HT2A receptor (selectivity). Further details: dose or concentration left out as unconfirmed. Conditions: selectivity versus 5-HT6; read-out: percent inhibition for the 5-HT2A receptor.

What is called inhibition is the percentage by which the read-out fell short of the control.

Sequence of 5-HT2A receptor (P28223 whole entry): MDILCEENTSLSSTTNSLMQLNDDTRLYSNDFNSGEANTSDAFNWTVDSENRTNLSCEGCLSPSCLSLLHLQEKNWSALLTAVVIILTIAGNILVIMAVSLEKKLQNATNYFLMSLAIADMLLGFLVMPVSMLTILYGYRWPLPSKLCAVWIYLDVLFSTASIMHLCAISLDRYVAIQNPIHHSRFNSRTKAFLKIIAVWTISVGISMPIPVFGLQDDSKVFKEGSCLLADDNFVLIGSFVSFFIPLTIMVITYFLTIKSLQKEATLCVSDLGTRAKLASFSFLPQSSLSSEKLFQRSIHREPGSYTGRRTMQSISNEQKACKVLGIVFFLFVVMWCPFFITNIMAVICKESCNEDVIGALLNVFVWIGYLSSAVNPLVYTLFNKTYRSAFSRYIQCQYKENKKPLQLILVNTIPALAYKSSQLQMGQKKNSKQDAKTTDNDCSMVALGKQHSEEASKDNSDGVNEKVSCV
Sequence of 5-HT7 receptor (P34969 whole entry): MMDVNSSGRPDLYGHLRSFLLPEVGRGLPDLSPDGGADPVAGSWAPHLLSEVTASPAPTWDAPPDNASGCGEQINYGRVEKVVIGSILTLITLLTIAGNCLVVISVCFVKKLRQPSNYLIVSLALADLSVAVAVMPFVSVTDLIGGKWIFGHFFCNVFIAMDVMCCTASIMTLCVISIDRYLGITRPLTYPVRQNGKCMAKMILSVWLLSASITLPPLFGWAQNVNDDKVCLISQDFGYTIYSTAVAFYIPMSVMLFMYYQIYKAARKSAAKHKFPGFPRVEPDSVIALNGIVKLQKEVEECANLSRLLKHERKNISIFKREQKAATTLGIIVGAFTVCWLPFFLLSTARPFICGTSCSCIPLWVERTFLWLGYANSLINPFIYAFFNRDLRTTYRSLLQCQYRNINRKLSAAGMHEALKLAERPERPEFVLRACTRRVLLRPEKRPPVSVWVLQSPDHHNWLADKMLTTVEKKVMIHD
Sequence of human 5HT6 receptor (P50406 whole entry): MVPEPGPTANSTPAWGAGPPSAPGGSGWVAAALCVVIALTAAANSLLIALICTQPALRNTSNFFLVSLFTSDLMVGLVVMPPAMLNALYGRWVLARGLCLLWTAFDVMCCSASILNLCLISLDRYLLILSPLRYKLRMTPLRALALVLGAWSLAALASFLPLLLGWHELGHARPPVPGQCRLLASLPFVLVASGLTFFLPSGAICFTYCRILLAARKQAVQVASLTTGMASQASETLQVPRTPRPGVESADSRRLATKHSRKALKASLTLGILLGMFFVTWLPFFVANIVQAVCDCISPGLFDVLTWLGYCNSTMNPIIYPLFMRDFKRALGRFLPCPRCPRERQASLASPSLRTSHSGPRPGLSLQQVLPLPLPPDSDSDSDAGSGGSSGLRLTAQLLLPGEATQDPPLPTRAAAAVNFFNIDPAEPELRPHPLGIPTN

In the case of `O=S(=O)(c1ccc2ccccc2c1)n1cc(N2CCN3CCCC3C2)c2ccccc21` (racemic) [Example 6a, 3-[(6-R,S)-1,4-Diaza[4.3. 0]bicyclonon-4-yl]-1-(2-naphthalenesulfonyl)indole], the inhibition at 0.1 µM was greater than 80% on human 5HT6 receptor and less than 20% on 5HT2C receptor. Besides, the inhibition at 5-HT7 receptor and at 5-HT2A receptor was less than 20% each time.
Regarding `O=S(=O)(c1ccc(F)cc1)n1cc(C2=CCN3CCCC3C2)c2cc(F)ccc21` (racemic) [Example 6aa, 5-Fluoro-1-(4-fluorophenylsulfonyl)-3-[(8a-R,S)-1,2,3,5,8,8a-hexahydro-7-indolizinyl]indole], the inhibition at 0.1 µM at human 5HT6 receptor was greater than 80%; on 5HT2C receptor, less than 20%. Besides, the inhibition at 5-HT7 receptor and at 5-HT2A receptor was less than 20% each time.
For `O=S(=O)(c1ccc(Br)cc1)n1cc(C2=CCN3CCCC3C2)c2cc(F)ccc21` (racemic) [Example 6bb, 1-(4-Bromophenylsulfonyl)-5-fluoro-3-[(8a-R,S)-1,2,3,5,8,8a-hexahydro-7-indolizinyl]indole], the inhibition at 0.1 µM at human 5HT6 receptor is greater than 80%; on 5HT2C receptor, less than 20%. The inhibition on 5-HT7 receptor and at 5-HT2A receptor was less than 20% throughout.
Turning to `O=S(=O)(c1ccc(Br)cc1)n1cc(N2CCN3CCCC3C2)c2ccccc21` (racemic) [Example 6c, 1-(4-Bromophenylsulfonyl)-3-[(6-R,S)-1,4-diaza[4.3. 0]bicyclonon-4-yl]indole], the figures for the inhibition at 0.1 µM on human 5HT6 receptor and on 5HT2C receptor were greater than 80% and less than 20%, respectively. In addition, the inhibition at 5-HT7 receptor and on 5-HT2A receptor was less than 20% each time.
Turning to `O=S(=O)(c1ccccc1Br)n1cc(C2=CCN3CCCC3C2)c2cc(F)ccc21` (racemic) [Example 6cc, 1-(2-Bromophenylsulfonyl)-5-fluoro-3-[(8a-R,S)-1 ,2,3,5,8,8a-hexahydro-7-indolizinyl]indole], the values for the inhibition at 0.1 µM on human 5HT6 receptor and at 5HT2C receptor were greater than 80% and less than 20%, respectively. For the same compound, the inhibition on 5-HT7 receptor and on 5-HT2A receptor was less than 20% in each case.
For `CC(C)(C)c1ccc(S(=O)(=O)n2cc(N3CCN4CCCC4C3)c3ccccc32)cc1` (racemic) [Example 6d, 1-(4-t-Butylphenylsulfonyl)-3-[(6-R,S)-1,4-diaza[4.3. 0]bicyclonon-4-yl]indole], the inhibition at 0.1 µM at human 5HT6 receptor was greater than 80%; at 5HT2C receptor, less than 20%. For the same compound, the inhibition on 5-HT7 receptor and on 5-HT2A receptor was less than 20% in each case.
Consider `Cc1ccc(S(=O)(=O)n2cc(C3=CCN4CCCC4C3)c3cc(F)ccc32)cc1` (racemic) [Example 6dd, 5-Fluoro-3-[(8a-R,S)-1,2,3,5,8,8a-hexahydro-7-indolizinyl]-1-(4-methylphenylsulfonyl)indole], for which the inhibition at 0.1 µM at human 5HT6 receptor is greater than 80%; on 5HT2C receptor, less than 20%. In addition, the inhibition at 5-HT7 receptor and at 5-HT2A receptor was less than 20% in each case.
On to `O=S(=O)(c1ccc(Cl)cc1)n1cc(N2CCN3CCCC3C2)c2ccccc21` (racemic) [Example 6e, 1-(4-Chlorophenylsulfonyl)-3-[(6-R,S)-1,4-diaza[4.3. 0]bicyclonon-4-yl]indole], for which the inhibition at 0.1 µM at human 5HT6 receptor is greater than 80%.
`COc1ccc(S(=O)(=O)n2cc(C3=CCN4CCCC4C3)c3cc(F)ccc32)cc1` (racemic) [Example 6ee, 5-Fluoro-3-[(8a-R,S)-1,2,3,5,8,8a-hexahydro-7-indolizinyl]-1-(4-methoxyphenylsulfonyl)indole]: the inhibition at 0.1 µM at human 5HT6 receptor is greater than 80%; on 5HT2C receptor, less than 20%. Moreover, the inhibition on 5-HT7 receptor and on 5-HT2A receptor was less than 20% in each case.
For the compound `O=S(=O)(c1ccc(F)cc1)n1cc(N2CCN3CCCC3C2)c2ccccc21` (racemic) [Example 6f, 3-[(6-R,S)-1,4-Diaza[4.3. 0]bicyclonon-4-yl]-1-(4-fluorophenylsulfonyl)indole], the inhibition at 0.1 µM on human 5HT6 receptor is greater than 80%.
On to `COc1ccc(S(=O)(=O)n2cc(N3CCN4CCCC4C3)c3ccccc32)cc1` (racemic) [Example 6g, 3-[(6-R,S)-1,4-Diaza[4.3. 0]bicyclonon-4-yl]-1-(4-methoxyphenylsulfonyl)indole], for which the inhibition at 0.1 µM at human 5HT6 receptor is greater than 80%; at 5HT2C receptor, less than 20%. Besides, the inhibition at 5-HT7 receptor and on 5-HT2A receptor was less than 20% throughout.
Consider `CC(C)(C)c1ccc(S(=O)(=O)n2cc(C3=CCN4CCCC4C3)c3cc(F)ccc32)cc1` (racemic) [Example 6gg, 1-(4-t-Butylphenylsulfonyl)-5-fluoro-3-[(8a-R,S)-1,2,3,5,8,8a-hexahydro-7-indolizinyl]indole], for which the inhibition at 0.1 µM is greater than 80% on human 5HT6 receptor and less than 20% on 5HT2C receptor. Besides, the inhibition at 5-HT7 receptor and at 5-HT2A receptor was less than 20% throughout.
With `O=S(=O)(c1cc(Cl)ccc1Cl)n1cc(N2CCN3CCCC3C2)c2ccccc21` (racemic) [Example 6h, 3-[(6-R,S)-1,4-Diaza[4.3. 0]bicyclonon-4-yl]-1-(2,5-dichlorophenylsulfonyl)indole], the inhibition at 0.1 µM at human 5HT6 receptor is greater than 80%.
`O=S(=O)(c1cc(Cl)ccc1Cl)n1cc(C2=CCN3CCCC3C2)c2cc(F)ccc21` (racemic) [Example 6hh, 1-(2,5-Dichlorophenylsulfonyl)-5-fluoro-3-[(8a-R,S)-1,2,3,5,8,8a-hexahydro-7-indolizinyl]indole]: the inhibition at 0.1 µM on human 5HT6 receptor was greater than 80%; on 5HT2C receptor it was less than 20%. Besides, the inhibition at 5-HT7 receptor and on 5-HT2A receptor was less than 20% each time.
Regarding `O=S(=O)(c1ccccc1Br)n1cc(N2CCN3CCCC3C2)c2ccccc21` (racemic) [Example 6i, 1-(2-Bromophenylsulfonyl)-3-[(6-R,S)-1,4-diaza[4.3. 0]bicyclonon-4-yl]indole], on human 5HT6 receptor, the inhibition at 0.1 µM was greater than 80%.
Regarding `Cc1ccc(S(=O)(=O)n2cc(N3CCN4CCCC4C3)c3ccccc32)cc1` (racemic) [Example 6k, 3-[(6-R,S)-1,4-Diaza[4.3. 0]bicyclonon-4-yl]-1-(4-methylphenylsulfonyl)indole], the inhibition at 0.1 µM at human 5HT6 receptor was greater than 80%.
`Cc1ccc(S(=O)(=O)n2cc(N3CCN4CCCCC4C3)c3ccccc32)cc1` (racemic) [Example 6v, 3-[(6-R,S)-1,4-Diaza[4.4. 0]bicyclodecan-4-yl]-1-(4-methylphenylsulfonyl)indole]: the inhibition at 0.1 µM on human 5HT6 receptor was greater than 80%.
For `Cc1ccc(S(=O)(=O)n2nc(N3CCN4CCCC4C3)c3ccccc32)cc1` (racemic) [Example 7a, 3-[(6-R,S)-1,4-Diaza[4.3. 0]bicyclonon-4-yl]-1-(4-methylphenylsulfonyl)indazole], the inhibition at 0.1 µM at human 5HT6 receptor is greater than 80%.
Consider `Cc1ccc(S(=O)(=O)n2nc(N3CCN4CCCCC4C3)c3ccccc32)cc1` (racemic) [Example 7b, 3-[(6-R,S)-1,4-Diaza[4.4. 0]bicyclodecan-4-yl]-1-(4-methylphenylsulfonyl)indazole], for which the inhibition at 0.1 µM on human 5HT6 receptor is greater than 80%.
For the compound `Cc1cccc(-n2cc(C3CCN4CCCC4C3)c3cc(F)ccc32)c1` (racemic) [Example 9a, 5-Fluoro-3-[(7-R,S)(8a-R,S)-octahydro-7-indolizinyl]-1-(3-methylphenyl)indole], the inhibition at 0.1 µM on human 5HT6 receptor is greater than 80%.
As to `O=S(=O)(c1ccccc1)n1cc(C2=CCN3CCCC3C2)c2cc(OC3CCCCC3)ccc21` (racemic) [Example 10i, 5-Cyclohexyloxy-3-[(8a-R,S)-1,2,3,5,8,8a-hexahydrohydro-7-indolizinyl]-1-phenylsulfonylindole], the inhibition at 0.1 µM on human 5HT6 receptor is greater than 80%.
Regarding `Fc1ccc2c(c1)c(C1CCN3CCCC3C1)cn2Cc1ccccc1` (single isomer, unassigned; isomer i) [Example 10h, 1-Benzyl-5-fluoro-3-[(7R or 7S)(8a-R,S)-octahydrohydro-7-indolizinyl]indole, Isomer I], the inhibition at 0.1 µM at human 5HT6 receptor is greater than 80%.
As for `O=S(=O)(c1cc(Cl)ccc1Cl)n1cc(C2CCN3CCCC3C2)c2cc(F)ccc21` (single isomer, unassigned; isomer i) [Example 10j, 1-(2,5-Dichlorophenylsulfonyl)-5-Fluoro-3-[(7R or 7S)(8a-R,S)-octahydrohydro-7-indolizinyl]indole, Isomer I], at human 5HT6 receptor, the inhibition at 0.1 µM was greater than 80%.
Consider `Cc1cccc(S(=O)(=O)n2cc(C3CCN4CCCC4C3)c3cc(F)ccc32)c1` (single isomer, unassigned; isomer i) [Example 10k, 5-Fluoro-1-(3-methylphenylsulfonyl)-3-[(7R or 7S)(8a-R,S)octahydrohydro-7-indolizinyl]lindole, Isomer I], for which, at human 5HT6 receptor, the inhibition at 0.1 µM is greater than 80%.

Values taken from US6251893A, “Bicyclic piperidine and piperazine compounds having 5-HT6 receptor affinity” (NPS Allelix Corp., priority 1998, dated 2001).
